Activity calls are given as the source filed them. The rule behind the calls is not given here.
Legend:
Mycobacterium avium [1] = test: Antimycobacterial activity against Mycobacterium avium 2447 Smt infected in BALB/c mice BMDM assessed as bacterial growth inhibition upto 20 uM after 5 days; type: functional, organism-based
Mycobacterium avium [2] = test: Antimycobacterial activity against Mycobacterium avium 2447 Smt infected in BALB/c mice BMDM assessed as bacterial growth inhibition at 10 uM after 5 days; type: functional, organism-based

Structure (SMILES): Cc1cc(O)c(O)c(CNC(=O)CCC(CCC(=O)NCc2c(O)c(O)cc(C)[n+]2C)(CCC(=O)NCc2c(O)c(O)cc(C)[n+]2C)NC(=O)CCNC(=S)Nc2ccc(C(=O)O)c(-c3c4ccc(=[N+](C)C)cc-4oc4cc(N(C)C)ccc34)c2)[n+]1C
- inhibition (Mycobacterium avium [1]): Active
- inhibition (Mycobacterium avium [2]): Active
